Experiment [1] deals with T1, tMS^HcyFolCapCob (Thermus thermophilus, UniProt Q5SKM5, F110A/E123A/E124A/Y296A/D651A/P652A/G653A).
T1 construct: gene TTHA0618; Hcy-Fol-Cap-Cob tetradomain, lacks Act domain; N-terminal His6 tag cut with TEV; about 95 kDa monomer; E. coli BL21star(DE3)
T1 sequence (Q5SKM5 1-877 F110A/E123A/E124A/Y296A/D651A/P652A/G653A): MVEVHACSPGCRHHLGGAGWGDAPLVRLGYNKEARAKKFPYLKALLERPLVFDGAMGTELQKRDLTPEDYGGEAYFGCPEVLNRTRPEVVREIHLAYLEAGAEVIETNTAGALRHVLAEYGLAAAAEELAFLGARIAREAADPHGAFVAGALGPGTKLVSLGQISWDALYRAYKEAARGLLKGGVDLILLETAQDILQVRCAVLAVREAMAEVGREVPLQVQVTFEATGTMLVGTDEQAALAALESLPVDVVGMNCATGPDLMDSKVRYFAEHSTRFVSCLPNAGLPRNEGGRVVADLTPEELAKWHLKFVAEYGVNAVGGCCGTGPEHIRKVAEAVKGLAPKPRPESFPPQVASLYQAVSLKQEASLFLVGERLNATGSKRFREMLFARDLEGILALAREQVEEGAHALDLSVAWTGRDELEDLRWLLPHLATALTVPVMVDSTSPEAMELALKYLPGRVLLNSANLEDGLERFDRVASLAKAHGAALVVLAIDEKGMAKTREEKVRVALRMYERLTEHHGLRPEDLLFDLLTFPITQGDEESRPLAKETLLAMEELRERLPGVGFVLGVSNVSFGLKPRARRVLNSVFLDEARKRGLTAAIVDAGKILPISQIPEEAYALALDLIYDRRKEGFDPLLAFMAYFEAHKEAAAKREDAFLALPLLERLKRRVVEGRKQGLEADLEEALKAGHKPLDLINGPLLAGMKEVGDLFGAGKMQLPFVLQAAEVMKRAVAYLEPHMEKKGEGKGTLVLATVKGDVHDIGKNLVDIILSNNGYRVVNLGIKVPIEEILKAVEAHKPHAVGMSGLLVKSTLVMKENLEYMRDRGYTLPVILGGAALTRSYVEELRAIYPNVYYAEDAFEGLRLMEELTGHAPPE
Nature of the experiment: X-ray crystal structure, […] Å. Conditions: pre-Hcy-on, prCbl holoenzyme, mutant 1. The format is binding.

In another experiment the target is T2, tMS^ΔN35Hcy (tMS^Hcy) (Thermus thermophilus, UniProt Q5SKM5).
T2 construct: gene TTHA0618; isolated Hcy domain lacking N-terminal 35 residues; N-terminal His6-TEV tag, no cut described; E. coli BL21star(DE3)
T2 sequence (Q5SKM5 36-340 limits assumed): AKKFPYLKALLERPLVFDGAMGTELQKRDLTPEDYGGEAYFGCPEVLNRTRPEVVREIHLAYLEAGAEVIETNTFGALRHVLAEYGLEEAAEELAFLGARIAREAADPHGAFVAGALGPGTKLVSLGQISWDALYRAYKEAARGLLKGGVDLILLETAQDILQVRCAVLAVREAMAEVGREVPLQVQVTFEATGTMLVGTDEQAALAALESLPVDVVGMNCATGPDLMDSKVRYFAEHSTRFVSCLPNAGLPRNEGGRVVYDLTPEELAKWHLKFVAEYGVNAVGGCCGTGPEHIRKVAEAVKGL
As to the kind of experiment: UV-Vis methylcobalamin consumption. The format is biochemical. The settings on record: 100 µM homocysteine; 20 µM free MeCbl; 2 µM enzyme; pH 7.4, 0.5 mM TCEP, 50 °C.

For another experiment, the target named is T3, tMS^HcyFol (Thermus thermophilus, UniProt Q5SKM5).
T3 construct: gene TTHA0618; Hcy-Fol didomain; N-terminal His6-TEV tag, no cut described; E. coli BL21star(DE3)
T3 sequence (Q5SKM5 1-640 limits assumed): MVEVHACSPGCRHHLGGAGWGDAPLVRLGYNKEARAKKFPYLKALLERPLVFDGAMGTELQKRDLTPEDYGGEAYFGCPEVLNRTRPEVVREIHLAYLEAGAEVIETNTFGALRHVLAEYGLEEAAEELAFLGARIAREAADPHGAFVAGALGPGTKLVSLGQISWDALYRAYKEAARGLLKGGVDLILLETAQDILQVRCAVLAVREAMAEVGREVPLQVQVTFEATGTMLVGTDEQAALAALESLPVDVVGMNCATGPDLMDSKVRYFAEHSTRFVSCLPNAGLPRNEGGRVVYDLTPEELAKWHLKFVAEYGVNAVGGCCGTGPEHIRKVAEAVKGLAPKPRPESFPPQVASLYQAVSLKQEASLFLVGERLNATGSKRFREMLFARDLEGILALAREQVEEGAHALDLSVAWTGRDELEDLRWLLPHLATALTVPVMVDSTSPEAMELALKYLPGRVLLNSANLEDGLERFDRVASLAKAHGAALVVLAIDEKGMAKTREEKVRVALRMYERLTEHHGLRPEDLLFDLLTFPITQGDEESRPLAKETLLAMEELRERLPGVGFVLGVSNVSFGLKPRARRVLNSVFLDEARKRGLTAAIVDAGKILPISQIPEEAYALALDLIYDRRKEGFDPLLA
Nature of the experiment: UV-Vis methylcobalamin consumption. The format is biochemical. The settings on record: 100 µM homocysteine; 23 µM CapCob-bound MeCbl or 20 µM free MeCbl; 2 µM enzyme; pH 7.4, 0.5 mM TCEP, 50 °C.

Experiment [2] concerns the target T4, tMS^HcyFolCapCob (Thermus thermophilus, UniProt Q5SKM5, F110A/E123A/E124A/R268A/D651A/P652A/G653A/D759A/N774H/R826A).
T4 construct: gene TTHA0618; Hcy-Fol-Cap-Cob tetradomain, lacks Act domain; N-terminal His6 tag cut with TEV; about 95 kDa monomer; E. coli BL21star(DE3)
T4 sequence (Q5SKM5 1-877 F110A/E123A/E124A/R268A/D651A/P652A/G653A/D759A/N774H/R826A): T1 sequence (Q5SKM5 1-877 F110A/E123A/E124A/Y296A/D651A/P652A/G653A) with R268A, A296Y, D759A, N774H, R826A
As to the kind of experiment: X-ray crystal structure, […] Å. The experiment is classed as binding. Conditions: Hcy-on; aeCbl holoenzyme; co-purified; Fol domain; mutant 2.

Changes are numbered by the printed parent chain.

For `N[C@@H](CCS)C(=O)O` [homocysteine], at tMS^HcyFolCapCob [1] (Hcy domain site), the “X-ray crystal structure, 2.45 Å” value was “HCY was found bound in the pre-Hcy-on structure (9CBP)”. Besides, the UV-Vis methylcobalamin consumption result is “Consumption of exogenous methylcobalamin was detected in the presence of both tMS ^HcyFol and tMS^Hcy” on tMS^ΔN35Hcy (tMS^Hcy); “consumption of methylcobalamin when bound to tMS^CapCob was observed with tMS^HcyFol” on tMS^HcyFol.
`Nc1nc2c(c(=O)[nH]1)N[C@@H](CNc1ccc(C(=O)N[C@@H](CCC(=O)O)C(=O)O)cc1)CN2` [tetrahydrofolate]: the “X-ray crystal structure, 2.45 Å” value at tMS^HcyFolCapCob [1] (co-purified, Fol domain) is recorded as “tetradomain did yield a folate-bound structure, modelled as tetrahydrofolate (Ligand ID THG)”. Also, the “X-ray crystal structure, 2.38 Å” value at tMS^HcyFolCapCob [2] is “pre-Hcy-on (Cap-on, 9CBP) and Hcy-on (9CBR) states copurified with the folate demethylation byproduct”.
